{"source": "patent US20080138383A1", "about": "“COMPOSITIONS AND METHODS FOR TREATING SEIZURES” (priority 2006, published 2008)", "origin": "cited, not measured here", "key": {"[1]": {"settings": "in vivo"}}, "note": "Like-named read-outs stand apart in the source and are kept apart here.", "data": [{"compound": "O=C1CN=C(c2ccccc2)c2cc(Cl)ccc2N1", "note": "[desmethyldiazepam]", "values": [{"measurement": "activity relative to the parent drug", "setting": "main active metabolite versus diazepam", "result": "somewhat less active than the parent drug"}]}, {"compound": "Cc1ncc2n1-c1ccc(Cl)cc1C(c1ccccc1F)=NC2", "note": "[midazolam]", "values": [{"measurement": "elimination half-life", "setting": "[1]", "result": "1.5 to 3.5", "unit": "h"}]}, {"compound": "O=C1Nc2ccc(Cl)cc2C(c2ccccc2Cl)=NC1O", "note": "(centres unmarked) [lorazepam]", "values": [{"measurement": "onset of action", "setting": "after intramuscular administration", "result": "up to 1 hour"}, {"measurement": "onset of action", "setting": "after intravenous administration", "result": "several minutes"}, {"measurement": "dose equivalent to 5 mg of diazepam", "setting": "estimates", "result": "approximately 0.5 mg"}]}]}
